Here are results for one substance from US7579315B2, “Casein peptides for alleviating or preventing aging of skin” (Pepsyn Ltd., priority 2000, dated 2009).

The test system of this experiment is Human keratinocytes (HatKat). Nature of the experiment: Growth of keratinocytes, cell count in Coulter counter after three days. The experiment is classed as cell-based. Particulars: 10 ng/ml EGF versus medium with 0.5% FCS. As for the experimental part: Human keratinocytes (HatKat) were grown in keratinocyte growth medium (TCS Cellworks Ltd.) until 20% confluence. Then, in the same medium, the keratinocytes were grown for three days with 0.5% foetal calf serum (FCS), at which point the cells were counted in a Coulter® counter. The cell numbers obtained are set out in Table 3 below.

For the substance “epidermal growth factor (NSDSECPLSHDGYCLHDGVCMYIEALDKYACNCVVGYIGERCQYRDLKWWELR; UniProt P01133 971-1023, looked up) [EGF, epidermal growth factor, comparison growth factor at 10 ng/ml]”, the “increase in the growth of keratinocytes (in words)” value is on record as “relatively modest increase”.
